We go through 60 compounds from ChEMBL document CHEMBL1133669 (J Med Chem, 2000).

One assay concerns the target Carbonic anhydrase 1 (Homo sapiens, UniProt P00915).
The next assay deals with T1, Carbonic anhydrase 4 (Bos taurus, UniProt Q95323).
T1 sequence (Q95323 whole entry): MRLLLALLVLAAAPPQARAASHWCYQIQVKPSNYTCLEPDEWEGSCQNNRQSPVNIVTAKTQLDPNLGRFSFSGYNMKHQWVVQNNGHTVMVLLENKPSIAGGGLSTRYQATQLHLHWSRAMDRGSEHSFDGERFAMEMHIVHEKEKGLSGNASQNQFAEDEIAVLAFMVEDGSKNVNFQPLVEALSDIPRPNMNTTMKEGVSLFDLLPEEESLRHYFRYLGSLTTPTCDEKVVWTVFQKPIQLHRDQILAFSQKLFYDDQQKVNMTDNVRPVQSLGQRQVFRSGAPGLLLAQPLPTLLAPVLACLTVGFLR

Chain of Carbonic anhydrase 1 (P00915 whole entry): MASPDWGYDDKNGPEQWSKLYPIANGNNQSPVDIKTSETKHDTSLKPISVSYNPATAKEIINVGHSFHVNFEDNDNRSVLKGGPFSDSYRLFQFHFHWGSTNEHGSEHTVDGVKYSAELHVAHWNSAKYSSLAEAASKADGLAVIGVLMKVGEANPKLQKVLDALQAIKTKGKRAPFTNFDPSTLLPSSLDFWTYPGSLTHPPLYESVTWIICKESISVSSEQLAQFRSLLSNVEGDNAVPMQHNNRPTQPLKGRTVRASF
Description for Carbonic anhydrase 1: Inhibitory activity against human carbonic anhydrase I (CA1)
Description for Carbonic anhydrase 4: Inhibitory activity against bovine carbonic anhydrase IV (CA4), isolated from bovine lung microsomes

By Ki is commonly meant a measure of affinity in units of concentration, obtained from inhibition or displacement. A high value points to a looser hold on the target. For `CCc1cc(-c2ccccc2)cc(CC)[n+]1CC(=O)Nc1ccccc1S(N)(=O)=O`, the Ki was found to be 27500 nM at Carbonic anhydrase 1 and 335 nM on Carbonic anhydrase 4.

On Carbonic anhydrase 4, `CC(C)c1cc(-c2ccccc2)cc(C(C)C)[n+]1CC(=O)Nc1nnc(S(N)(=O)=O)s1` displayed a Ki of 36 nM. On to `Cc1cc(-c2ccccc2)cc(C)[n+]1CC(=O)NCCc1ccc(S(N)(=O)=O)cc1`, for which the Ki on Carbonic anhydrase 1 is 720 nM; on Carbonic anhydrase 4, 46 nM. In the case of `CCc1cc(-c2ccccc2)cc(CC)[n+]1CC(=O)Nc1ccc(S(N)(=O)=O)cc1Cl`, the Ki is 610 nM at Carbonic anhydrase 1 and 46 nM on Carbonic anhydrase 4. As for `Cc1cc(-c2ccccc2)cc(C)[n+]1CC(=O)Oc1ccc2nc(S(N)(=O)=O)sc2c1`, the Ki on Carbonic anhydrase 1 was 11 nM; on Carbonic anhydrase 4, 17 nM. Consider `Cc1cc(C)[n+](CC(=O)Nc2ccc(S(=O)(=O)Nc3nnc(S(N)(=O)=O)s3)cc2)c(C)c1`, for which the Ki is 15 nM at Carbonic anhydrase 1 and 12 nM at Carbonic anhydrase 4.

In the case of `Cc1cc(-c2ccccc2)cc(C)[n+]1CC(=O)Nc1ccc(S(N)(=O)=O)cc1I`, the Ki is 610 nM on Carbonic anhydrase 1 and 59 nM at Carbonic anhydrase 4. For the compound `CC(C)c1cc(-c2ccccc2)cc(C(C)C)[n+]1CC(=O)OCCc1ccc(S(N)(=O)=O)cc1`, the Ki at Carbonic anhydrase 1 is 1650 nM; at Carbonic anhydrase 4, 115 nM.

As for `CC(C)c1cc(-c2ccccc2)cc(C(C)C)[n+]1CC(=O)Nc1cccc(S(N)(=O)=O)c1`, the Ki was 23100 nM on Carbonic anhydrase 1 and 345 nM on Carbonic anhydrase 4.

In the case of `Cc1cc(C)[n+](CC(=O)Nc2nnc(S(N)(=O)=O)s2)c(C)c1`, the results for the Ki on Carbonic anhydrase 1 and on Carbonic anhydrase 4 were 300 nM and 50 nM, respectively. `CCc1cc(-c2ccccc2)cc(CC)[n+]1CC(=O)Nc1ccc(S(N)(=O)=O)cc1F`: the Ki at Carbonic anhydrase 1 was 750 nM; at Carbonic anhydrase 4 it was 39 nM.

With `Cc1cc(-c2ccccc2)cc(C)[n+]1CC(=O)Nc1c(S(N)(=O)=O)cc(S(N)(=O)=O)c(Cl)c1Cl`, the values for the Ki on Carbonic anhydrase 1 and on Carbonic anhydrase 4 were 380 nM and 31 nM, respectively. Consider `Cc1cc(-c2ccccc2)cc(C)[n+]1CC(=O)Nc1ccc2nc(S(N)(=O)=O)sc2c1`, for which the Ki on Carbonic anhydrase 1 is 10 nM; on Carbonic anhydrase 4, 19 nM. In the case of `Cc1cc(C)[n+](CC(=O)Nc2ccc(S(N)(=O)=O)cc2Br)c(C)c1`, the values for the Ki at Carbonic anhydrase 1 and on Carbonic anhydrase 4 were 800 nM and 77 nM, respectively.

As to `Cc1cc(C)[n+](CC(=O)Nc2ccc(S(N)(=O)=O)cc2)c(C)c1`, the Ki at Carbonic anhydrase 1 was determined as 16000 nM; at Carbonic anhydrase 4, 190 nM. As for `Cc1cc(C)[n+](CC(=O)Nc2c(S(N)(=O)=O)cc(S(N)(=O)=O)c(Cl)c2Cl)c(C)c1`, the Ki on Carbonic anhydrase 1 was 550 nM; at Carbonic anhydrase 4 it was 67 nM. For the compound `Cc1cc(C)[n+](CC(=O)OCCc2ccc(S(N)(=O)=O)cc2)c(C)c1`, the results for the Ki on Carbonic anhydrase 1 and on Carbonic anhydrase 4 were 1700 nM and 130 nM, respectively.

Take `Cc1cc(-c2ccccc2)cc(C)[n+]1CC(=O)OCc1ccc(S(N)(=O)=O)cc1`: the values for the Ki at Carbonic anhydrase 1 and at Carbonic anhydrase 4 were 1350 nM and 75 nM, respectively. Consider `Cc1cc(C)[n+](CC(=O)NCCc2ccc(S(N)(=O)=O)cc2)c(C)c1`, for which the values for the Ki on Carbonic anhydrase 1 and on Carbonic anhydrase 4 were 805 nM and 71 nM, respectively. As to `Cc1cc(-c2ccccc2)cc(C)[n+]1CC(=O)NNc1ccc(S(N)(=O)=O)cc1`, the values for the inhibition constant Ki on Carbonic anhydrase 1 and at Carbonic anhydrase 4 were 26000 nM and 310 nM, respectively. Regarding `Cc1cc(-c2ccccc2)cc(C)[n+]1CC(=O)Nc1ccc(S(=O)(=O)Nc2ccc(S(N)(=O)=O)cc2)cc1`, the Ki at Carbonic anhydrase 1 was 41 nM; at Carbonic anhydrase 4, 54 nM. Regarding `CC(C)c1cc(-c2ccccc2)cc(C(C)C)[n+]1CC(=O)NCCc1ccc(S(N)(=O)=O)cc1`, the Ki at Carbonic anhydrase 1 amounted to 775 nM; at Carbonic anhydrase 4 it was 70 nM. For the compound `CCc1cc(-c2ccccc2)cc(CC)[n+]1CC(=O)Nc1c(S(N)(=O)=O)cc(S(N)(=O)=O)c(Cl)c1Cl`, the Ki was determined as 400 nM at Carbonic anhydrase 1 and 35 nM at Carbonic anhydrase 4. For the compound `Cc1cc(C)[n+](CC(=O)Nc2ccc3nc(S(N)(=O)=O)sc3c2)c(C)c1`, the values for the Ki on Carbonic anhydrase 1 and on Carbonic anhydrase 4 were 15 nM and 50 nM, respectively. For `Cc1cc(C)[n+](CC(=O)/N=c2/sc(S(N)(=O)=O)nn2C)c(C)c1`, in that order: 330 nM and 60 nM. Regarding `Cc1cc(-c2ccccc2)cc(C)[n+]1CC(=O)NCc1ccc(S(N)(=O)=O)cc1`, the Ki on Carbonic anhydrase 1 came out at 1250 nM; on Carbonic anhydrase 4, 50 nM.

In the case of `Cc1cc(C)[n+](CC(=O)OCc2ccc(S(N)(=O)=O)cc2)c(C)c1`, the Ki on Carbonic anhydrase 1 was found to be 1800 nM; on Carbonic anhydrase 4 it was 140 nM.

As to `CCc1cc(-c2ccccc2)cc(CC)[n+]1CC(=O)/N=c1/sc(S(N)(=O)=O)nn1C`, the Ki at Carbonic anhydrase 1 worked out at 300 nM; on Carbonic anhydrase 4, 25 nM. In the case of `CCc1cc(-c2ccccc2)cc(CC)[n+]1CC(=O)Nc1ccc(S(=O)(=O)Nc2nnc(S(N)(=O)=O)s2)cc1`, the Ki at Carbonic anhydrase 1 is 12 nM; at Carbonic anhydrase 4 it was 9 nM. For `CC(C)c1cc(-c2ccccc2)cc(C(C)C)[n+]1CC(=O)OCCOc1ccc2nc(S(N)(=O)=O)sc2c1`, in that order: 11 nM and 30 nM. Turning to `Cc1cc(C)[n+](CC(=O)OCCOc2ccc3nc(S(N)(=O)=O)sc3c2)c(C)c1`, the Ki on Carbonic anhydrase 1 is 12 nM; at Carbonic anhydrase 4, 33 nM.

In the case of `Cc1cc(C)[n+](CC(=O)Oc2ccc3nc(S(N)(=O)=O)sc3c2)c(C)c1`, the Ki is 13 nM at Carbonic anhydrase 1 and 29 nM at Carbonic anhydrase 4. As to `Cc1cc(-c2ccccc2)cc(C)[n+]1CC(=O)Nc1nccc(Nc2ccc(S(N)(=O)=O)cc2)n1`, the Ki on Carbonic anhydrase 1 was determined as 35 nM; at Carbonic anhydrase 4, 50 nM.

With `Cc1cc(C)[n+](CC(=O)Nc2ccc(S(N)(=O)=O)cc2I)c(C)c1`, the values for the Ki at Carbonic anhydrase 1 and at Carbonic anhydrase 4 were 810 nM and 78 nM, respectively. For the compound `Cc1cc(C)[n+](CC(=O)NNc2ccc(S(N)(=O)=O)cc2)c(C)c1`, the Ki at Carbonic anhydrase 1 came to 35000 nM; on Carbonic anhydrase 4, 450 nM.

As to `CC(C)c1cc(-c2ccccc2)cc(C(C)C)[n+]1CC(=O)Nc1ccc(S(=O)(=O)Nc2ccc(S(N)(=O)=O)cc2)cc1`, the Ki at Carbonic anhydrase 1 was determined as 50 nM; at Carbonic anhydrase 4, 73 nM. For `Cc1cc(-c2ccccc2)cc(C)[n+]1CC(=O)Nc1ccc(S(=O)(=O)/N=c2/sc(S(N)(=O)=O)nn2C)cc1`, in that order: 11 nM and 8 nM. Take `Nc1cc(C(F)(F)F)c(S(N)(=O)=O)cc1S(N)(=O)=O` [2,4-DISULFAMYLTRIFLUOROMETHYLANILINE]: the affinity on Carbonic anhydrase 4, expressed as Ki, was 140 nM. In the case of `CC(C)c1cc(-c2ccccc2)cc(C(C)C)[n+]1CC(=O)Nc1ccc(S(N)(=O)=O)cc1Cl`, the Ki at Carbonic anhydrase 1 was found to be 600 nM; at Carbonic anhydrase 4, 56 nM. As to `Cc1cc(-c2ccccc2)cc(C)[n+]1CC(=O)OCCOc1ccc2nc(S(N)(=O)=O)sc2c1`, the figures for the Ki at Carbonic anhydrase 1 and at Carbonic anhydrase 4 were 9 nM and 16 nM, respectively. Consider `CC(C)c1cc(-c2ccccc2)cc(C(C)C)[n+]1CC(=O)Nc1cc(C(F)(F)F)c(S(N)(=O)=O)cc1S(N)(=O)=O`, for which the values for the Ki at Carbonic anhydrase 1 and at Carbonic anhydrase 4 were 310 nM and 42 nM, respectively.

In the case of `Cc1cc(-c2ccccc2)cc(C)[n+]1CC(=O)Nc1ccccc1S(N)(=O)=O`, the Ki amounted to 25300 nM at Carbonic anhydrase 1 and 290 nM on Carbonic anhydrase 4. As to `CC(C)c1cc(-c2ccccc2)cc(C(C)C)[n+]1CC(=O)Nc1cc(Cl)c(S(N)(=O)=O)cc1S(N)(=O)=O`, the figures for the Ki at Carbonic anhydrase 1 and at Carbonic anhydrase 4 were 350 nM and 46 nM, respectively. `CCc1cc(-c2ccccc2)cc(CC)[n+]1CC(=O)Nc1ccc(S(N)(=O)=O)cc1`: the figures for the Ki at Carbonic anhydrase 1 and on Carbonic anhydrase 4 were 15000 nM and 170 nM, respectively. For `Cc1cc(-c2ccccc2)cc(C)[n+]1CC(=O)Nc1ccc(S(N)(=O)=O)cc1Br`, the Ki amounted to 600 nM at Carbonic anhydrase 1 and 35 nM on Carbonic anhydrase 4. At Carbonic anhydrase 1, `Cc1cc(C)[n+](CC(=O)Nc2ccc(S(=O)(=O)/N=c3/sc(S(N)(=O)=O)nn3C)cc2)c(C)c1` gave a Ki of 15 nM.

Consider `Cc1cc(-c2ccccc2)cc(C)[n+]1CC(=O)NCCC(=O)Nc1nnc(S(N)(=O)=O)s1`, for which the affinity on Carbonic anhydrase 4, expressed as Ki, was 15 nM. That is a double-digit nanomolar value.

In the case of `CCc1cc(-c2ccccc2)cc(CC)[n+]1CC(=O)Oc1ccc2nc(S(N)(=O)=O)sc2c1`, the Ki at Carbonic anhydrase 1 came to 11 nM; on Carbonic anhydrase 4, 27 nM.

For the compound `CC(C)c1cc(-c2ccccc2)cc(C(C)C)[n+]1CC(=O)Nc1ccc2nc(S(N)(=O)=O)sc2c1`, the Ki on Carbonic anhydrase 1 worked out at 13 nM; on Carbonic anhydrase 4 it was 38 nM. For `Cc1cc(C)[n+](CC(=O)Nc2cc(C(F)(F)F)c(S(N)(=O)=O)cc2S(N)(=O)=O)c(C)c1`, the Ki on Carbonic anhydrase 1 was determined as 320 nM; at Carbonic anhydrase 4, 58 nM. Consider `Cc1cc(-c2ccccc2)cc(C)[n+]1CC(=O)Nc1ccc(S(N)(=O)=O)cc1F`, for which the Ki was found to be 700 nM on Carbonic anhydrase 1 and 36 nM at Carbonic anhydrase 4.

As for `Cc1cc(-c2ccccc2)cc(C)[n+]1CC(=O)Nc1cc(Cl)c(S(N)(=O)=O)cc1S(N)(=O)=O`, the Ki stood at 350 nM at Carbonic anhydrase 1 and 30 nM on Carbonic anhydrase 4.

With `Cc1cc(-c2ccccc2)cc(C)[n+]1CC(=O)OCCc1ccc(S(N)(=O)=O)cc1`, the Ki is 1100 nM on Carbonic anhydrase 1 and 69 nM at Carbonic anhydrase 4. Turning to `Cc1cc(-c2ccccc2)cc(C)[n+]1CC(=O)Nc1ccc(S(=O)(=O)Nc2nnc(S(N)(=O)=O)s2)cc1`, the Ki at Carbonic anhydrase 1 stood at 10 nM; at Carbonic anhydrase 4 it was 9 nM. With `CCc1cc(-c2ccccc2)cc(CC)[n+]1CC(=O)Nc1nccc(Nc2ccc(S(N)(=O)=O)cc2)n1`, the Ki came to 45 nM at Carbonic anhydrase 1 and 58 nM on Carbonic anhydrase 4. Consider `CCc1cc(-c2ccccc2)cc(CC)[n+]1CC(=O)Nc1ccc(S(=O)(=O)Nc2ccc(S(N)(=O)=O)cc2)cc1`, for which the results for the Ki at Carbonic anhydrase 1 and at Carbonic anhydrase 4 were 46 nM and 63 nM, respectively. For `CCc1cc(-c2ccccc2)cc(CC)[n+]1CC(=O)NNc1ccc(S(N)(=O)=O)cc1`, the Ki on Carbonic anhydrase 1 was determined as 28000 nM; on Carbonic anhydrase 4 it was 340 nM.

For `CCc1cc(-c2ccccc2)cc(CC)[n+]1CC(=O)NCc1ccc(S(N)(=O)=O)cc1`, the figures for the Ki at Carbonic anhydrase 1 and on Carbonic anhydrase 4 were 1400 nM and 67 nM, respectively. Consider `CCc1cc(-c2ccccc2)cc(CC)[n+]1CC(=O)NCCC(=O)Nc1nnc(S(N)(=O)=O)s1`, for which, at Carbonic anhydrase 4, the Ki came out at 19 nM. Take `CC(C)c1cc(-c2ccccc2)cc(C(C)C)[n+]1CC(=O)NCCC(=O)Nc1nnc(S(N)(=O)=O)s1`: on Carbonic anhydrase 4, the affinity, expressed as Ki, was 16 nM.
